Measurements: patent publication US11965159B2, “Compositions and methods for regulating proteins and nucleic acids activities” (THE BROAD INSTITUTE, INC., priority 2019, dated 2024)

Biological target: T1, SpCas9:gRNA ribonucleoprotein complex (Streptococcus pyogenes serotype M1, UniProt Q99ZW2)
T1 construct: His6 (N, cleaved yes); made in house; host or cells: E. coli BL21 Star (DE3)
Experiment: 19F NMR binding assay
Conditions: [Ligand] 50 μM
Experimental: (§1) NMR binding assay. All samples were prepared with 50 μM BRD7087 in 20 mM Tris buffer (pH=7.4) with varying concentrations of SpCas9:gRNA in a 3 mm NMR tube. Experiments were performed on a 600 MHz (19F: 564.71 MHz) BRUKER Avance™ III NMR spectrometer equipped with a 5 mm QCI-F CryoProbe™ and a SampleJet for automated sample handling. To acquire spectra, a standard one-pulse 19F experiment with WALTZ-16 for proton decoupling during acquisition, a 5 second recycle delay, and 256 scans was used. All spectra were recorded at 280 K. NMR data were apodized with a 1 Hz exponential function prior to Fourier transformation. All spectra were baseline corrected; peak widths and intensities were extracted using the automated line-fitting feature provided with the MNova software package. Determination of the value of Kd was accomplished using least squares fitting to the expression given in Equation 8 in the paper by Shortridge et al.2.
Kd values obtained by NMR rely on the assumption that ligand binding is in fast-exchange, which typically holds true for ligands with Kd in the 0.5 μM to 20 mM range.
as §1, with “(^19F:” for “(19F:”, “^19F” for “19F”, “al.^2.” for “al.2.”

T1 sequence (Q99ZW2 whole entry, one chain of several): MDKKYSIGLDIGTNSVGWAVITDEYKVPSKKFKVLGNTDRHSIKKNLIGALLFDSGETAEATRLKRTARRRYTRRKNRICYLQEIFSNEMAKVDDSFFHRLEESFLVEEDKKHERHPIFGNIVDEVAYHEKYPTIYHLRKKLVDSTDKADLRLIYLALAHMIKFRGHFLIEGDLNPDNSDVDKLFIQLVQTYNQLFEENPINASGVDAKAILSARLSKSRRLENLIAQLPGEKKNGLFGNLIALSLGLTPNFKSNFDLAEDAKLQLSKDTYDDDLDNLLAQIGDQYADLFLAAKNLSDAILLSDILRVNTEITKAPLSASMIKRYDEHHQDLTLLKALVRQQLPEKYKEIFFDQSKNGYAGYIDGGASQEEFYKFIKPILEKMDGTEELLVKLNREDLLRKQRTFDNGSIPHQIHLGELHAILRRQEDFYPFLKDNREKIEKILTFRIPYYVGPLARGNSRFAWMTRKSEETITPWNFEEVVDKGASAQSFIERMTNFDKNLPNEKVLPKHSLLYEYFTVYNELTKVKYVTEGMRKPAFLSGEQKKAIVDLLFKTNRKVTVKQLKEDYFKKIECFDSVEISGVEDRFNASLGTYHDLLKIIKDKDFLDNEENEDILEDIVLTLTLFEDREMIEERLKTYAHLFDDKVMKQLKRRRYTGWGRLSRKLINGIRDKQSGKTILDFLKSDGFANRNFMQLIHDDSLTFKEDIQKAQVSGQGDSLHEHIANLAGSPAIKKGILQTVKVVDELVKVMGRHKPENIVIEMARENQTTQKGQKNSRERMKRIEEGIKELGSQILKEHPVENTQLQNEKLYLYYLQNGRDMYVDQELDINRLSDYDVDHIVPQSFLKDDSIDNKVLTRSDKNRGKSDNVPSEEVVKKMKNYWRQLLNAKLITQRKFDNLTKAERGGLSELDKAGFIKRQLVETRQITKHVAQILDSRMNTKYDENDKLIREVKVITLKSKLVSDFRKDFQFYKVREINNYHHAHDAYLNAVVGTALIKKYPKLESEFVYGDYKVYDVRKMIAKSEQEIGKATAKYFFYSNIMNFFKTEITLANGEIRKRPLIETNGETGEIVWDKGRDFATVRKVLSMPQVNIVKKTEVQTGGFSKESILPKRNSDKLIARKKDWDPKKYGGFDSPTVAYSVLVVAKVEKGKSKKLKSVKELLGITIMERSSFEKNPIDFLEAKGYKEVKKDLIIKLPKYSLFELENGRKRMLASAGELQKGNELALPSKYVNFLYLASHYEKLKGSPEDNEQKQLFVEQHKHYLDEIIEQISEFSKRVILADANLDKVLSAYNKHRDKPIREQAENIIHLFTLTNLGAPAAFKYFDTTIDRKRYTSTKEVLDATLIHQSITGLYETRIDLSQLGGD

In the case of OC[C@H]1Nc2ccc(-c3cccc(F)c3)cc2[C@H]2[C@@H]1CCN2Cc1ccncc1 [BRD7087, ((3aR,4S,9bR)-8-(3-Fluorophenyl)-1-(pyridin-4-ylmethyl)-2,3,3a,4,5,9b-hexahydro-1H-pyrrolo[3,2-c]quinolin-4-yl)methanol], the LW ([Protein:RNA] 0 μM) is reported as 4.1 Hz, the “Peak Area” value ([Protein:RNA] 0 μM) is reported as 3151271.718 and the “Peak Intensity” value ([Protein:RNA] 0 μM) is reported as 572470.95. The “Fractional Occupancy” value ([Protein:RNA] 0 μM, 1-Ibound/I0) was 0, the LW ([Protein:RNA] 0.75 μM) was 4.3 Hz and the “Peak Area” value ([Protein:RNA] 0.75 μM) was 2968891.536. The “Peak Intensity” value ([Protein:RNA] 0.75 μM) was 497630.81, the LW ([Protein:RNA] 1.0 μM) was 4.6 Hz and the “Peak Area” value ([Protein:RNA] 1.0 μM) was 2999269.636. The “Peak Intensity” value ([Protein:RNA] 1.0 μM) was 468481.06, the LW ([Protein:RNA] 1.25 μM) was 5.3 Hz and the “Peak Area” value ([Protein:RNA] 1.25 μM) was 2964107.303. For the same molecule, the “Peak Intensity” value ([Protein:RNA] 1.25 μM) was 398322.72, the LW ([Protein:RNA] 1.5 μM) was 5.9 Hz and the “Peak Area” value ([Protein:RNA] 1.5 μM) was 3176044.761. For the same molecule, the “Peak Intensity” value ([Protein:RNA] 1.5 μM) was 375769.97, the LW ([Protein:RNA] 1.75 μM) was 6.3 Hz and the “Peak Area” value ([Protein:RNA] 1.75 μM) was 3020022.312. The “Peak Intensity” value ([Protein:RNA] 1.75 μM) was 342640.49.
